Results as given in patent publication US20190343801A1, “COMPOSITIONS AND METHODS FOR CONTROLLING NATURAL KILLER CELL ACTIVATION AND FUNCTION” (BAR ILAN UNIVERSITY, priority 2017, published 2019).
Structures can show the parent of a compound that is named as a salt.

Columns and labels:
[1] = test system: myosin light chain (MLC) phosphorylation on Serine 19; test: Immunoblot of myosin light chain phosphorylation with anti-pMLC (Ser19); format: cell-based; conditions: 25 μM Y-27 for 15 min
Protocol: YTS-2DL1 cells were treated with 25 μM of Y-27 for 15 min at 37° C., or left untreated. Cells were incubated at 37° C. with […] target cells for 5 min, 1 μM of JAS was added, and cells were incubated for 5 min. Cell lysates were analyzed by IB for phosphorylation of myosin light chain using anti-pMLC (Ser19) antibodies.
For analysis of whole cell lysates, 1-10×10^5 cells were used, and for IP experiments, 10-15×10^6 cells were used. Protein A/G plus-Agarose beads (Santa Cruz Biotechnology) were used for IP. Protein samples were resolved with sodium dodecyl sulfate-polyacrylamide gel electrophoresis (SDS-PAGE), transferred to nitrocellulose membrane, and immunoblotted with the appropriate primary antibodies. Immunoreactive proteins were detected with either anti-mouse or anti-rabbit horseradish peroxidase-coupled secondary antibody followed by detection by enhanced chemiluminescence (PerkinElmer).

SHP-1 conformation = test: YFP-SHP1-CFP FRET sensor analysis of SHP-1 conformation in YTS cells; format: cell-based; conditions: inhibitory NKIS (221-Cw4), untreated 11.5±2.5%; 1 μM JAS, 25 μM Y-27
Protocol: Active “open” conformation of SHP-1 results in a large distance between the two fluorescent proteins with no FRET signal. The inactivated, “closed”, conformation of SHP-1 brings the N′- and C′-termini into proximity resulting in high FRET efficiency.
YTS-2DL1 cells transiently expressing YFP-SHP1-CFP were treated with 25 μM Y-27 or left untreated. Cells were incubated on slides with 221-Cw4 or Cw7 target cells expressing mCherry, following 5 min of conjugation at 37° C., cells were treated with 1 μM JAS, and incubated for 5 min before fixation. FRET analysis was performed (see Experimental procedures). […]
FRET was measured by the donor-sensitized acceptor fluorescence technique. Briefly, three sets of filters were used: one optimized for donor fluorescence (excitation, 458 nm, and emission, 465 to 510 nm), a second for acceptor fluorescence (excitation, 514 nm, and emission, 530 to 600 nm), and a third for FRET (excitation, 458 nm; emission, 530 to 600 nm).
FRET correction was performed as previously described. In brief, the non-FRET components were calculated and removed using calibration curves derived from images of single-labeled CFP- or YFP-expressing cells. […] A calibration curve was derived that defined the amount of CFP fluorescence seen in the FRET image as a function of the fluorescence in the CFP image. […]

SMILES: C[C@@H](N)C1CCC(C(=O)Nc2ccncc2)CC1 (stereo partly drawn) [Formula Y-27, 4-[(1R)-1-aminoethyl]-N N-4-pyridinyl-trans-cyclohexanecarboxamide, dihydrochloride]
- MLC phosphorylation (pMLC S19) [1]: significant reduction in phosphorylation
- FRET efficiency (SHP-1 conformation): 23.2±1.3%
